Laboratory results from PMC6817905, “Inhibition of translation termination by small molecules targeting ribosomal release factors” (Scientific Reports, 2019).

Experiments:
[1] = tested on: Staphylococcus aureus strain ATCC29213; assay: MIC on bacterial growth, wt S. aureus (broth micro-dilution); assay type: cell-based
Experimental: The minimal inhibitory concentrations (MIC) of the drugs were measured in 96-well round-bottom microtiter plates using cation-adjusted Mueller-Hinton II (MH II) media. All measurements were done with at least three biological replicates. Briefly, bacterial colonies from a non-selective agar plate were re-suspended in 0.9% NaCl to 0.5 McFarland ( ≅1.5×10^8 cfu/ml). The cell suspension was further diluted to ≅5×10^5 cfu/ml (50 µl of bacterial suspension to 10 ml of MHII) and then 90 µl of cell suspension ( ≅5×10^5 cfu/l) was added to each well. […] The MIC value was determined visually as the lowest concentration of drug that inhibited growth.

[2] = tested on: Escherichia coli strain MG1655; assay: MIC on bacterial growth, wt E. coli (broth micro-dilution); assay type: cell-based; settings: 500 mg l^−1 highest concentration tested
Experimental: The four different strains analyzed were wild type (wt) Staphylococcus aureus (strain ATCC 29213), wt Escherichia coli (strain MG1655, K12), a drug-hypersensitive E. coli lpxC mutant D22 (strain MG1655) and an efflux-defective E. coli ΔtolC mutant (strain MG1655). These were grown in cation-adjusted Mueller Hinton II media (MH II, Nordic Biolabs), the standard medium for antibiotic susceptibility testing. For overnight cell cultures one colony from a MH II (Nordic Biolabs) plate was inoculated in 1 ml MH II media in a 10 ml tube and the bacteria was incubated at 37 °C shaking at 190 rpm. Cells from the overnight culture was used for MIC determinations and time-kill experiments.
The minimal inhibitory concentrations (MIC) of the drugs were measured in 96-well round-bottom microtiter plates using cation-adjusted Mueller-Hinton II (MH II) media. All measurements were done with at least three biological replicates. Briefly, bacterial colonies from a non-selective agar plate were re-suspended in 0.9% NaCl to 0.5 McFarland ( ≅1.5×10^8 cfu/ml). The cell suspension was further diluted to ≅5×10^5 cfu/ml (50 µl of bacterial suspension to 10 ml of MHII) and then 90 µl of cell suspension ( ≅5×10^5 […]) was added to each well. […] The MIC value was determined visually as the lowest concentration of drug that inhibited growth.

PTC of the ribosome [3] = molecular target: PTC of the ribosome; set-up: method as in PMID 23824292; settings: fold higher Ki than for termination; cited from earlier work
PTC of the ribosome [4] = molecular target: PTC of the ribosome; set-up: method as in PMID 23824292; settings: read-out: Apparent Ki, peptide release; cited from earlier work

| Molecule | MIC S. aureus wt [1] [µg/mL] | MIC E. coli K12 wt [2] [µg/mL] | Ki for peptide bond formation relative to termination reaction (PTC of the ribosome [3]) [fold] | Ki (PTC of the ribosome [4]) [nM] |
| --- | --- | --- | --- | --- |
| kirromycin | 100 | 50 | – | – |
| CN(CC[C@H](N)CC(=O)N[C@H]1C=C[C@H](n2ccc(N)nc2=O)O[C@@H]1C(=O)O)C(=N)N [Blasticidin S] | – | – | 6 | ~30 |
